In the NIST ThermoML archive (doi:10.1021/je200811n):
± gives the expanded uncertainty stated by the source.

Conditions: Liquid, Hot wire method

F/C=C/C(F)(F)F [trans-1,3,3,3-tetrafluoropropene]
Conditions	thermal conductivity [W/m/K]
203.15 K	0.1101 ± 0.00064
213.15 K	0.1064 ± 0.00063
223.15 K	0.1024 ± 0.0006
233.15 K	0.0984 ± 0.0006

Conditions	thermal conductivity [W/m/K]
203.18 K, 711 kPa	0.1106 ± 0.0012
203.18 K, 5522 kPa	0.1124 ± 0.0012
203.18 K, 10459 kPa	0.114 ± 0.0012
203.18 K, 15332 kPa	0.1155 ± 0.0013
203.18 K, 20782 kPa	0.1173 ± 0.0013
203.28 K, 739 kPa	0.1103 ± 0.0012
203.28 K, 5531 kPa	0.112 ± 0.0012
203.28 K, 10473 kPa	0.1137 ± 0.0012
203.29 K, 15354 kPa	0.1152 ± 0.0013
203.29 K, 20780 kPa	0.1169 ± 0.0013
203.54 K, 5526 kPa	0.1122 ± 0.0012
203.54 K, 10469 kPa	0.1137 ± 0.0012
203.55 K, 747 kPa	0.1104 ± 0.0012
203.55 K, 15371 kPa	0.1153 ± 0.0013
203.56 K, 20781 kPa	0.1169 ± 0.0013
203.67 K, 5527 kPa	0.1118 ± 0.0012
203.67 K, 10483 kPa	0.1135 ± 0.0012
203.67 K, 15392 kPa	0.1149 ± 0.0012
203.67 K, 20820 kPa	0.1167 ± 0.0013
203.68 K, 729 kPa	0.11 ± 0.0012
203.94 K, 20822 kPa	0.1168 ± 0.0013
203.95 K, 15357 kPa	0.1149 ± 0.0012
203.96 K, 5536 kPa	0.1119 ± 0.0012
203.96 K, 10470 kPa	0.1136 ± 0.0012
203.97 K, 733 kPa	0.1102 ± 0.0012
204.1 K, 15343 kPa	0.1146 ± 0.0012
204.1 K, 20832 kPa	0.1164 ± 0.0013
204.11 K, 5538 kPa	0.1115 ± 0.0012
204.11 K, 10474 kPa	0.1133 ± 0.0012
204.12 K, 727 kPa	0.1098 ± 0.0012
204.38 K, 20839 kPa	0.1166 ± 0.0013
204.39 K, 15379 kPa	0.1146 ± 0.0012
204.4 K, 10465 kPa	0.1133 ± 0.0012
204.41 K, 5532 kPa	0.1118 ± 0.0012
204.42 K, 727 kPa	0.11 ± 0.0012
204.56 K, 15381 kPa	0.1145 ± 0.0012
204.56 K, 20849 kPa	0.1163 ± 0.0013
204.57 K, 10473 kPa	0.113 ± 0.0012
204.59 K, 5544 kPa	0.1114 ± 0.0012
204.62 K, 736 kPa	0.1094 ± 0.0012
204.85 K, 20860 kPa	0.1164 ± 0.0013
204.87 K, 15409 kPa	0.1147 ± 0.0012
204.88 K, 10437 kPa	0.1131 ± 0.0012
204.9 K, 5524 kPa	0.1115 ± 0.0012
204.92 K, 744 kPa	0.1095 ± 0.0012
205.05 K, 20874 kPa	0.116 ± 0.0013
205.06 K, 15407 kPa	0.1143 ± 0.0012
205.09 K, 10456 kPa	0.1127 ± 0.0012
205.1 K, 5515 kPa	0.1111 ± 0.0012
205.13 K, 719 kPa	0.1088 ± 0.0012
221.66 K, 461 kPa	0.1031 ± 0.0011
221.67 K, 5469 kPa	0.1047 ± 0.0011
221.74 K, 21449 kPa	0.1111 ± 0.0012
221.76 K, 463 kPa	0.1036 ± 0.0011
221.76 K, 5431 kPa	0.1048 ± 0.0011
221.76 K, 10410 kPa	0.1068 ± 0.0012
221.76 K, 15721 kPa	0.1089 ± 0.0012
221.84 K, 21448 kPa	0.1108 ± 0.0012
221.86 K, 15726 kPa	0.1087 ± 0.0012
221.88 K, 10573 kPa	0.1069 ± 0.0012
222.06 K, 464 kPa	0.1022 ± 0.0011
222.06 K, 10416 kPa	0.1071 ± 0.0012
222.08 K, 5404 kPa	0.1049 ± 0.0011
222.12 K, 21441 kPa	0.1109 ± 0.0012
222.15 K, 15723 kPa	0.1088 ± 0.0012
222.18 K, 10370 kPa	0.1067 ± 0.0012
222.19 K, 465 kPa	0.103 ± 0.0011
222.19 K, 5436 kPa	0.1046 ± 0.0011
222.24 K, 21442 kPa	0.1106 ± 0.0012
222.27 K, 15726 kPa	0.1085 ± 0.0012
222.3 K, 10660 kPa	0.1066 ± 0.0011
222.49 K, 10407 kPa	0.1072 ± 0.0012
222.5 K, 470 kPa	0.1023 ± 0.0011
222.5 K, 5467 kPa	0.105 ± 0.0011
222.5 K, 10293 kPa	0.1066 ± 0.0011
222.54 K, 21423 kPa	0.1106 ± 0.0012
222.57 K, 15731 kPa	0.1085 ± 0.0012
222.64 K, 10411 kPa	0.1065 ± 0.0011
222.65 K, 468 kPa	0.1027 ± 0.0011
222.65 K, 5467 kPa	0.1046 ± 0.0011
222.68 K, 21432 kPa	0.1103 ± 0.0012
222.72 K, 15730 kPa	0.1082 ± 0.0012
222.97 K, 10413 kPa	0.1065 ± 0.0012
222.99 K, 5478 kPa	0.1038 ± 0.0011
223 K, 470 kPa	0.1026 ± 0.0011
223 K, 21446 kPa	0.1104 ± 0.0012
223.04 K, 15727 kPa	0.1083 ± 0.0012
223.15 K, 10394 kPa	0.1061 ± 0.0012
223.16 K, 5476 kPa	0.1042 ± 0.0011
223.18 K, 469 kPa	0.1021 ± 0.0011
223.18 K, 21443 kPa	0.11 ± 0.0012
223.22 K, 15728 kPa	0.108 ± 0.0012
223.49 K, 10439 kPa	0.1055 ± 0.0011
223.5 K, 21421 kPa	0.1101 ± 0.0012
223.52 K, 5475 kPa	0.105 ± 0.0011
223.55 K, 15715 kPa	0.1081 ± 0.0012
223.7 K, 10408 kPa	0.1058 ± 0.0011
223.71 K, 21432 kPa	0.1098 ± 0.0012
223.73 K, 5485 kPa	0.104 ± 0.0011
223.75 K, 474 kPa	0.1022 ± 0.0011
223.76 K, 15729 kPa	0.1077 ± 0.0012
241.49 K, 10379 kPa	0.09991 ± 0.0011
241.51 K, 15379 kPa	0.1018 ± 0.0011
241.52 K, 20702 kPa	0.1042 ± 0.0011
241.53 K, 5318 kPa	0.09771 ± 0.0011
241.56 K, 614 kPa	0.09561 ± 0.001
241.59 K, 10369 kPa	0.0996 ± 0.0011
241.6 K, 15368 kPa	0.1014 ± 0.0011
241.61 K, 20709 kPa	0.1038 ± 0.0011
241.62 K, 5325 kPa	0.09743 ± 0.0011
